Here are results for one compound from patent US8236851B2, “Microspherules containing a pleuromutilin derivative” (Novartis AG, priority 2001, dated 2012).

Details of data set [1]: species or system piglets. To be noted: in vivo, po. How it is done: Bioavailability studies indicate that the microspherules pass through the stomach in an intact state and release the active ingredient only in the alkaline medium of the intestine. […] After 8-10 hours, the curve then falls off again and approaches zero. In case b), with the microspherules, the increase in active ingredient concentration begins after a delay of about 1-2 hours, reaches its maximum value after about 3-4 hours and, after about 10-12 hours, falls towards zero. […] This new method makes available a form of administration that is gentle on the stomach and that makes oral therapy even more efficient.

Data set [2] can be described thus: Stability of valnemulin in uncompressed feed. The data set is classed as physicochemical.

Structures are written as SMILES. Counter-ions that a name gives are not always drawn.

Regarding `C=C[C@]1(C)C[C@@H](OC(=O)CSC(C)(C)CNC(=O)[C@H](N)C(C)C)[C@]2(C)[C@H](C)CC[C@]3(CCC(=O)[C@H]32)[C@@H](C)[C@@H]1O` [free valnemulin hydrochloride, valnemulin], in data set [1], the “time after which the plasma concentration curve falls towards zero” value lay in the range of 8 to 10 h and the “time at which plasma active ingredient concentration reaches its maximum value” lay within 2 to 3 h. In addition, the “loss of valnemulin in uncompressed feed” value in data set [2] is listed as “the same losses”.
